In patent US20140357666A1, “COMPOUNDS FOR INHIBITING THE INTERACTION OF BCL2 WITH BINDING PARTNERS” (NOVARTIS AG, priority 2011, published 2014):

How the values were obtained:
[1] = target: BCL-2 binding to biotinylated BAD peptide (Homo sapiens, UniProt P10415); test: SPR (Biacore) solution inhibition assay, BCL-2 binding to BAD peptide surface; details: read-out: BCL2_SPR IC50 BAD
Excerpt: (§1) The present method includes utility of a Surface plasmon resonance (SPR)-based biosensor (Biacore™, GE Healthcare, Uppsala, Sweden) to characterize BCL-2 inhibitors.
(§2) Biacore™ utilizes the phenomenon of surface plasmon resonance (SPR) to detect and measure binding interactions. In a typical Biacore experiment, one of the interacting molecules (ligand) is immobilized on a flexible dextran matrix while the interacting partner (analyte) is allowed to flow across that surface. A binding interaction results in an increase in mass on the sensor surface and a corresponding direct change in the refractive index of the medium in the vicinity of the sensor surface. Changes in refractive index or signal are recorded in resonance units (R.U.) Signal changes due to association and dissociation of complexes are monitored in a non-invasive manner, continuously and in real-time, the results of which are reported in the form of a sensorgram.
(§3) The SPR assay is configured to examine solution inhibition of BCL-2 binding to peptide derivatized sensor surfaces to generate IC50 values as a measure of inhibitor potency.
(§4) Biacore™ A100 (GE Healthcare, Uppsala, Sweden) was used to conduct all experiments reported herein. Sensor surface preparation and all interaction analyses experiments were performed at 25° C. Reagents were purchased from GE Healthcare. Running buffer containing 10 mM Hepes, pH7.4, 150 mM sodium chloride, 1.25 mM Dithiothreitol, 3% Dimethyl sulfoxide and 0.05% polysorbate 20 were utilized throughout all analyses.
(§5) Biotinylated BAK, BAD and NOXA peptides were diluted to 10 nM in running buffer and captured onto a sensor surface pre-derivatized with streptavidin (sensor chip SA) to peptide surface densities in the range 50-100 R.U. Peptide captured surfaces were blocked with 500 μM PEO2-Biotin.
(§6) Interaction analyses were performed by first equilibrating each sample within a 6 point three fold compound dilution series in the range 16 μM to […] with 56 nM BCL-2 for one hour during instrument start-up procedures. Protein compound mixtures were then injected over each peptide surface in parallel for 60 seconds at a flow-rate of 30 μL/min. 56 nM BCL-2 control samples were also prepared and run at regular intervals during the assay. Surface regeneration was performed at the end of each analysis cycle by two 30 second injections of 10 mM Glycine, pH 2.5, 1M Sodium Chloride, 0.05% polysorbate 20. Samples and control compound samples were run in duplicate and controls are also run at regular intervals during the assay to monitor surface and assay performance.
(§7) Data analyses are carried out using Biacore™ A100 evaluation software v1.1 to validate assay quality. Binding level report points were used relative to BCL-2 control samples to calculate % inhibition values for each compound protein mixture. […] The range of data shown in table 1 represents the high and low IC50 values obtained from multiple experiments.

[2] = target: BCL-2 binding to biotinylated BAK peptide (Homo sapiens, UniProt P10415); test: SPR (Biacore) solution inhibition assay, BCL-2 binding to BAK peptide surface; details: read-out: BCL2_SPR IC50 BAK
Chain of BCL-2 binding to biotinylated BAK peptide (P10415 whole entry): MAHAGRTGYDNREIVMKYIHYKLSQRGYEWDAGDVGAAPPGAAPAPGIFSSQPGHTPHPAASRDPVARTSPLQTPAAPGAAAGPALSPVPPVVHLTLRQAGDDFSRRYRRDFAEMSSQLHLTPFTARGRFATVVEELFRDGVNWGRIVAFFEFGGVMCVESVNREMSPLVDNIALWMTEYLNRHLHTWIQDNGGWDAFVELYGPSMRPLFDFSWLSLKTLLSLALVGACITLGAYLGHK
Excerpt: as §1, §2, §3, §4, §5, §6, §7

Chain of BCL-2 binding to biotinylated BAD peptide (P10415 whole entry): as above

## CCCCN(CCCC)C(=O)c1cc(C)n(-c2ccc(NC(=O)NCc3ccccc3)cc2C(=O)N2Cc3ccccc3C[C@H]2CO)n1 [Example 1, (S)-1-(4-(3-benzylureido)-2-(3-(hydroxymethyl)-1,2,3,4-tetrahydroisoquinoline-2-carbonyl)phenyl)-N,N-dibutyl-5-methyl-1H-pyrazole-3-carboxamide]
[1]
  IC50: 52 to 65.5 nM
[2]
  IC50: 45.2 to 54.3 nM

## CCCCN(CCCC)C(=O)c1cc(C)n(-c2ccc(NC(=O)NCC)cc2C(=O)N2Cc3ccccc3C[C@H]2CO)n1 [Example 2]
[1]
  IC50: 582 to 618 nM
[2]
  IC50: 404 to 430 nM

## CCCCN(CCCC)C(=O)c1cc(C)n(-c2ccc(NC(=O)Nc3cccc(OC)c3)cc2C(=O)N2Cc3ccccc3C[C@H]2CO)n1 [Example 3]
[1]
  IC50: 894 to 1020 nM
[2]
  IC50: 806 to 893 nM

## CCCCN(CCCC)C(=O)c1cc(C)n(-c2ccc(NC(=O)N[C@@H](C)c3ccccc3)cc2C(=O)N2Cc3ccccc3C[C@H]2CO)n1 [Example 4]
[1]
  IC50: 86.3 to 91.3 nM
[2]
  IC50: 73.1 to 75.7 nM

## CCCCN(CCCC)C(=O)c1cc(C)n(-c2ccc(NC(=O)NCc3ccccc3OC)cc2C(=O)N2Cc3ccccc3C[C@H]2CO)n1 [Example 5]
[1]
  IC50: 72.3 to 78.3 nM
[2]
  IC50: 73.2 to 77.1 nM

## CCCCN(CCCC)C(=O)c1cc(C)n(-c2ccc(NC(=O)NCc3ccc(OC)cc3)cc2C(=O)N2Cc3ccccc3C[C@H]2CO)n1 [Example 6]
[1]
  IC50: 108 to 117 nM
[2]
  IC50: 83.6 to 89.2 nM

## CCCCN(CCCC)C(=O)c1cc(C)n(-c2ccc(NC(=O)NCc3ccccc3Cl)cc2C(=O)N2Cc3ccccc3C[C@H]2CO)n1 [Example 7]
[1]
  IC50: 103 to 107 nM
[2]
  IC50: 86.3 to 94.2 nM

## CCCCN(CCCC)C(=O)c1cc(C)n(-c2ccc(NC(=O)NCc3ccc(Cl)cc3)cc2C(=O)N2Cc3ccccc3C[C@H]2CO)n1 [Example 8]
[1]
  IC50: 156 to 165 nM
[2]
  IC50: 140 to 149 nM

## CCCCN(CCCC)C(=O)c1cc(C)n(-c2ccc(NC(=O)N[C@H](C)c3ccccc3)cc2C(=O)N2Cc3ccccc3C[C@H]2CO)n1 [Example 9]
[1]
  IC50: 334 to 357 nM
[2]
  IC50: 250 to 273 nM

## CCCCN(CCCC)C(=O)c1cc(C)n(-c2ccc(NC(=O)Nc3ccc(C)c(C)c3)cc2C(=O)N2Cc3ccccc3C[C@H]2CO)n1 [Example 10]
[1]
  IC50: 731 to 784 nM
[2]
  IC50: 624 to 639 nM

## CCCCN(CCCC)C(=O)c1cc(C)n(-c2ccc(NC(=O)Nc3ccc(F)c(C(F)(F)F)c3)cc2C(=O)N2Cc3ccccc3C[C@H]2CO)n1 [Example 11]
[1]
  IC50: 3020 to 3220 nM
[2]
  IC50: 2710 to 2770 nM

## CCCCN(CCCC)C(=O)c1cc(C)n(-c2ccc(NC(=O)Nc3ccccc3Oc3ccccc3)cc2C(=O)N2Cc3ccccc3C[C@H]2CO)n1 [Example 12]
[1]
  IC50: > 16000 nM
[2]
  IC50: > 16000 nM

## CCCCN(CCCC)C(=O)c1cc(C)n(-c2ccc(NC(=O)N[C@@H]3C[C@H]3c3ccccc3)cc2C(=O)N2Cc3ccccc3C[C@H]2CO)n1 [Example 13]
[1]
  IC50: > 16000 nM
[2]
  IC50: 8770 to 9190 nM

## CCCCN(CCCC)C(=O)c1cc(C)n(-c2ccc(NC(=O)NC(C)C)cc2C(=O)N2Cc3ccccc3C[C@H]2CO)n1 [Example 14]
[1]
  IC50: 494 to 509 nM
[2]
  IC50: 343 to 356 nM

## CCCCN(CCCC)C(=O)c1cc(C)n(-c2ccc(NC(=O)NCCc3ccccc3)cc2C(=O)N2Cc3ccccc3C[C@H]2CO)n1 [Example 15]
[1]
  IC50: 150 to 157 nM

## CCCCN(CCCC)C(=O)c1cc(C)n(-c2ccc(NC(=O)Nc3ccc(SC)cc3)cc2C(=O)N2Cc3ccccc3C[C@H]2CO)n1 [Example 16]
[1]
  IC50: 786 to 983 nM
[2]
  IC50: 812 to 962 nM

## CCCCN(CCCC)C(=O)c1cc(C)n(-c2ccc(NC(=O)NCc3cccc(C)c3)cc2C(=O)N2Cc3ccccc3C[C@H]2CO)n1 [Example 17]
[1]
  IC50: 89 to 108 nM
[2]
  IC50: 85.1 to 85.9 nM

## CCCCN(CCCC)C(=O)c1cc(C)n(-c2ccc(NC(=O)Nc3ccc(-c4ccccc4)cc3)cc2C(=O)N2Cc3ccccc3C[C@H]2CO)n1 [Example 18]
[1]
  IC50: 1730 to 1760 nM
[2]
  IC50: 1950 to 2010 nM

## CCCCN(CCCC)C(=O)c1cc(C)n(-c2ccc(NC(=O)N[C@H](C)c3ccc(OC)cc3)cc2C(=O)N2Cc3ccccc3C[C@H]2CO)n1 [Example 19]
[1]
  IC50: 725 to 805 nM
[2]
  IC50: 736 to 857 nM

## CCCCN(CCCC)C(=O)c1cc(C)n(-c2ccc(NC(=O)N[C@@H](C)c3ccc(OC)cc3)cc2C(=O)N2Cc3ccccc3C[C@H]2CO)n1 [Example 20]
[1]
  IC50: 71.1 to 75.4 nM
[2]
  IC50: 69 to 80.5 nM

## CCCCN(CCCC)C(=O)c1cc(C)n(-c2ccc(NC(=O)Nc3ccccc3OC)cc2C(=O)N2Cc3ccccc3C[C@H]2CO)n1 [Example 21]
[1]
  IC50: 2640 to 3450 nM
[2]
  IC50: 2740 to 3150 nM

## CCCCN(CCCC)C(=O)c1cc(C)n(-c2ccc(NC(=O)Nc3ccc(C#N)cc3)cc2C(=O)N2Cc3ccccc3C[C@H]2CO)n1 [Example 22]
[1]
  IC50: 1840 to 2170 nM
[2]
  IC50: 1570 to 1730 nM

## CCCCN(CCCC)C(=O)c1cc(C)n(-c2ccc(NC(=O)N[C@@H](C)c3cccc(OC)c3)cc2C(=O)N2Cc3ccccc3C[C@H]2CO)n1 [Example 23]
[1]
  IC50: 45.5 to 46.7 nM
[2]
  IC50: 37 to 41.7 nM

## CCCCN(CCCC)C(=O)c1cc(C)n(-c2ccc(NC(=O)Nc3ccc(OC)cc3C)cc2C(=O)N2Cc3ccccc3C[C@H]2CO)n1 [Example 25]
[1]
  IC50: 232 to 255 nM
[2]
  IC50: 143 to 177 nM

## CCCCN(CCCC)C(=O)c1cc(C)n(-c2ccc(NC(=O)Nc3cccs3)cc2C(=O)N2Cc3ccccc3C[C@H]2CO)n1 [Example 26]
[1]
  IC50: 2090 to 2440 nM
[2]
  IC50: 1660 to 1700 nM

## CCCCN(CCCC)C(=O)c1cc(C)n(-c2ccc(NC(=O)Nc3ccc(Cl)cc3C)cc2C(=O)N2Cc3ccccc3C[C@H]2CO)n1 [Example 27]
[1]
  IC50: 900 to 962 nM
[2]
  IC50: 846 to 861 nM

## CCCCN(CCCC)C(=O)c1cc(C)n(-c2ccc(NC(=O)Nc3ccccc3OCC)cc2C(=O)N2Cc3ccccc3C[C@H]2CO)n1 [Example 28]
[1]
  IC50: 508 to 697 nM
[2]
  IC50: 551 to 618 nM

## CCCCN(CCCC)C(=O)c1cc(C)n(-c2ccc(NC(=O)Nc3ccc4ccccc4c3)cc2C(=O)N2Cc3ccccc3C[C@H]2CO)n1 [Example 29]
[1]
  IC50: 2430 to 2560 nM
[2]
  IC50: 1840 to 2440 nM

## CCCCN(CCCC)C(=O)c1cc(C)n(-c2ccc(NC(=O)Nc3c(C)cccc3C)cc2C(=O)N2Cc3ccccc3C[C@H]2CO)n1 [Example 30]
[1]
  IC50: 210 to 238 nM
[2]
  IC50: 192 to 205 nM

## CCCCN(CCCC)C(=O)c1cc(C)n(-c2ccc(NC(=O)Nc3cccc(Cc4ccccc4)c3)cc2C(=O)N2Cc3ccccc3C[C@H]2CO)n1 [Example 31]
[1]
  IC50: 2320 to 2500 nM
[2]
  IC50: 1540 to 1580 nM

## CCCCN(CCCC)C(=O)c1cc(C)n(-c2ccc(NC(=O)NC3CCCC3)cc2C(=O)N2Cc3ccccc3C[C@H]2CO)n1 [Example 32]
[1]
  IC50: 445 to 463 nM
[2]
  IC50: 279 to 284 nM

## CCCCN(CCCC)C(=O)c1cc(C)n(-c2ccc(NC(=O)Nc3cccc(Cl)c3C)cc2C(=O)N2Cc3ccccc3C[C@H]2CO)n1 [Example 33]
[1]
  IC50: 440 to 448 nM
[2]
  IC50: 337 to 378 nM

## CCCCN(CCCC)C(=O)c1cc(C)n(-c2ccc(NC(=O)Nc3c(C)cccc3CC)cc2C(=O)N2Cc3ccccc3C[C@H]2CO)n1 [Example 34]
[1]
  IC50: 618 to 713 nM
[2]
  IC50: 631 to 667 nM

## CCCCN(CCCC)C(=O)c1cc(C)n(-c2ccc(NC(=O)Nc3ccc(F)c(F)c3)cc2C(=O)N2Cc3ccccc3C[C@H]2CO)n1 [Example 35]
[1]
  IC50: 3200 to 3930 nM
[2]
  IC50: 3010 to 3070 nM

## CCCCN(CCCC)C(=O)c1cc(C)n(-c2ccc(NC(=O)Nc3cc(Cl)cc(Cl)c3)cc2C(=O)N2Cc3ccccc3C[C@H]2CO)n1 [Example 36]
[1]
  IC50: > 16000 nM
[2]
  IC50: > 16000 nM

## CCCCN(CCCC)C(=O)c1cc(C)n(-c2ccc(NC(=O)Nc3cc(F)cc(F)c3)cc2C(=O)N2Cc3ccccc3C[C@H]2CO)n1 [Example 37]
[1]
  IC50: 4060 to 4280 nM
[2]
  IC50: 3760 to 3780 nM

## CCCCN(CCCC)C(=O)c1cc(C)n(-c2ccc(NC(=O)Nc3ccc(OC)c(OC)c3)cc2C(=O)N2Cc3ccccc3C[C@H]2CO)n1 [Example 38]
[1]
  IC50: 524 to 614 nM
[2]
  IC50: 384 to 417 nM

## CCCCN(CCCC)C(=O)c1cc(C)n(-c2ccc(NC(=O)Nc3ccccc3Cc3ccccc3)cc2C(=O)N2Cc3ccccc3C[C@H]2CO)n1 [Example 39]
[1]
  IC50: 766 to 845 nM
[2]
  IC50: 667 to 676 nM

## CCCCN(CCCC)C(=O)c1cc(C)n(-c2ccc(NC(=O)Nc3c(Cl)cccc3Cl)cc2C(=O)N2Cc3ccccc3C[C@H]2CO)n1 [Example 40]
[1]
  IC50: 204 to 303 nM
[2]
  IC50: 197 to 224 nM

## CCCCN(CCCC)C(=O)c1cc(C)n(-c2ccc(NC(=O)Nc3ccccc3OC(F)(F)F)cc2C(=O)N2Cc3ccccc3C[C@H]2CO)n1 [Example 41]
[1]
  IC50: 923 to 969 nM
[2]
  IC50: 888 to 970 nM
